Data: ChEMBL document CHEMBL3885861, “Open TG-GATES”

Species on record: Rattus norvegicus
Test: Open TG-GATES - Regimen: Daily Repeat
Assay type: toxicity, organism-based, Sprague-Dawley
Design: regimen Daily Repeat, gender Male, age 6 weeks
Settings: in vivo, po, 0 mg/kg, route gavage, dose level Control; for APTT / Bas / Eos / Fbg / Hb / Ht / Lym / MCH / MCHC / MCV / Mono / Neu / PT / Plat / RBC / Ret / WBC: tissue Blood; for KIDNEY_L / KIDNEY_R / KIDNEY_TOTAL: tissue Kidney; for LIVER: tissue Liver; for A/G / ALP / ALT / AST / BUN / CRE / Ca / Cl / DBIL / GLC / IP / K / LDH / Na / PL / RALB / TBIL / TC / TG / TP / gamma-GTP: tissue Plasma

Compound: CC1=C(/C=C/C(C)=C/C=C/C(C)=C/CO)C(C)(C)CCC1 [RETINOL]
- TERMINAL_BW (72 h, time 3 day): 232.6 g
- APTT (72 h, time 3 day): 21.2 s
- Bas (72 h, time 3 day): 0%
- Eos (72 h, time 3 day): 0.8%
- Fbg (72 h, time 3 day): 302.6 mg/dL
- Hb (72 h, time 3 day): 13.6 g/dL
- Ht (72 h, time 3 day): 39.5%
- Lym (72 h, time 3 day): 81.8%
- MCH (72 h, time 3 day): 21.4 pg
- MCHC (72 h, time 3 day): 34.4%
- MCV (72 h, time 3 day): 62 fL
- Mono (72 h, time 3 day): 2.8%
- Neu (72 h, time 3 day): 14%
- PT (72 h, time 3 day): 16.6 s
- Plat (72 h, time 3 day): 116.8 x10_4/uL
- RBC (72 h, time 3 day): 637 x10_4/ul
- Ret (72 h, time 3 day): 6.6%
- WBC (72 h, time 3 day): 108.7 x10_2/uL
- KIDNEY_L (72 h, time 3 day): 1.1 g
- KIDNEY_R (72 h, time 3 day): 1.1 g
- KIDNEY_TOTAL (72 h, time 3 day): 2.1 g
- LIVER (72 h, time 3 day): 11 g
- A/G (72 h, time 3 day): 1.2
- ALP (72 h, time 3 day): 1642.8 IU/L
- ALT (72 h, time 3 day): 49.4 IU/L
- AST (72 h, time 3 day): 76.2 IU/L
- BUN (72 h, time 3 day): 18.6 mg/dL
- CRE (72 h, time 3 day): 0.1 mg/dL
- Ca (72 h, time 3 day): 10.9 mg/dL
- Cl (72 h, time 3 day): 106.8 meq/L
- DBIL (72 h, time 3 day): 0 mg/dL
- GLC (72 h, time 3 day): 199.8 mg/dL
- IP (72 h, time 3 day): 6.8 mg/dL
- K (72 h, time 3 day): 4.6 meq/L
- LDH (72 h, time 3 day): 251.8 IU/L
- Na (72 h, time 3 day): 141.2 meq/L
- PL (72 h, time 3 day): 145.4 mg/dL
- RALB (72 h, time 3 day): 3 g/dL
- TBIL (72 h, time 3 day): 0.012 mg/dL
- TC (72 h, time 3 day): 76.2 mg/dL
- TG (72 h, time 3 day): 94.8 mg/dL
- TP (72 h, time 3 day): 5.5 g/dL
- gamma-GTP (72 h, time 3 day): 1 IU/L
- TERMINAL_BW ([…], time 7 day): 257.6 g
- TERMINAL_BW ([…], time 14 day): 301.9 g
- TERMINAL_BW ([…], time 28 day): 374.5 g
- APTT ([…], time 7 day): 20.5 s
- Bas ([…], time 7 day): 0%
- Eos ([…], time 7 day): 0.8%
- Fbg ([…], time 7 day): 304.8 mg/dL
- Hb ([…], time 7 day): 13.6 g/dL
- Ht ([…], time 7 day): 38.8%
- Lym ([…], time 7 day): 79.6%
- MCH ([…], time 7 day): 20.9 pg
- MCHC ([…], time 7 day): 35.1%
- MCV ([…], time 7 day): 59.7 fL
- Mono ([…], time 7 day): 2.2%
- Neu ([…], time 7 day): 16.4%
- PT ([…], time 7 day): 16.3 s
- Plat ([…], time 7 day): 117.2 x10_4/uL
- RBC ([…], time 7 day): 650.4 x10_4/ul
- Ret ([…], time 7 day): 5.1%
- WBC ([…], time 7 day): 114.1 x10_2/uL
- APTT ([…], time 14 day): 21.4 s
- Bas ([…], time 14 day): 0%
- Eos ([…], time 14 day): 0.4%
- Fbg ([…], time 14 day): 312 mg/dL
- Hb ([…], time 14 day): 13.7 g/dL
- Ht ([…], time 14 day): 38.7%
- Lym ([…], time 14 day): 78%
- MCH ([…], time 14 day): 20.9 pg
- MCHC ([…], time 14 day): 35.4%
- MCV ([…], time 14 day): 59.2 fL
- Mono ([…], time 14 day): 2%
- Neu ([…], time 14 day): 18.2%
- PT ([…], time 14 day): 16.1 s
- Plat ([…], time 14 day): 122.4 x10_4/uL
- RBC ([…], time 14 day): 654 x10_4/ul
- Ret ([…], time 14 day): 5.2%
- WBC ([…], time 14 day): 121.8 x10_2/uL
- APTT ([…], time 28 day): 24.2 s
- Bas ([…], time 28 day): 0%
- Eos ([…], time 28 day): 1%
- Fbg ([…], time 28 day): 354.8 mg/dL
- Hb ([…], time 28 day): 15.1 g/dL
- Ht ([…], time 28 day): 42.6%
- Lym ([…], time 28 day): 83.8%
- MCH ([…], time 28 day): 19.5 pg
- MCHC ([…], time 28 day): 35.5%
- MCV ([…], time 28 day): 54.8 fL
- Mono ([…], time 28 day): 1.6%
- Neu ([…], time 28 day): 12.6%
- PT ([…], time 28 day): 15.8 s
- Plat ([…], time 28 day): 113.8 x10_4/uL
- RBC ([…], time 28 day): 778.2 x10_4/ul
- Ret ([…], time 28 day): 2.6%
- WBC ([…], time 28 day): 112.5 x10_2/uL
- KIDNEY_L ([…], time 7 day): 1.1 g
- KIDNEY_R ([…], time 7 day): 1.1 g
- KIDNEY_TOTAL ([…], time 7 day): 2.2 g
- KIDNEY_L ([…], time 14 day): 1.2 g
- KIDNEY_R ([…], time 14 day): 1.2 g
- KIDNEY_TOTAL ([…], time 14 day): 2.4 g
- KIDNEY_L ([…], time 28 day): 1.4 g
- KIDNEY_R ([…], time 28 day): 1.4 g
- KIDNEY_TOTAL ([…], time 28 day): 2.7 g
- LIVER ([…], time 7 day): 12.5 g
- LIVER ([…], time 14 day): 13.8 g
- LIVER ([…], time 28 day): 15.6 g
- A/G ([…], time 7 day): 1.3
- ALP ([…], time 7 day): 1920 IU/L
- ALT ([…], time 7 day): 39.6 IU/L
- AST ([…], time 7 day): 67.6 IU/L
- BUN ([…], time 7 day): 17.4 mg/dL
- CRE ([…], time 7 day): 0.2 mg/dL
- Ca ([…], time 7 day): 10.7 mg/dL
- Cl ([…], time 7 day): 106.4 meq/L
- DBIL ([…], time 7 day): 0 mg/dL
- GLC ([…], time 7 day): 189 mg/dL
- IP ([…], time 7 day): 6.2 mg/dL
- K ([…], time 7 day): 4.4 meq/L
- LDH ([…], time 7 day): 219.6 IU/L
- Na ([…], time 7 day): 142 meq/L
- PL ([…], time 7 day): 145.2 mg/dL
- RALB ([…], time 7 day): 3.2 g/dL
- TBIL ([…], time 7 day): 0.002 mg/dL
- TC ([…], time 7 day): 74 mg/dL
- TG ([…], time 7 day): 109.6 mg/dL
- TP ([…], time 7 day): 5.6 g/dL
- gamma-GTP ([…], time 7 day): 1.2 IU/L
- A/G ([…], time 14 day): 1.3
- ALP ([…], time 14 day): 1383 IU/L
- ALT ([…], time 14 day): 34.6 IU/L
- AST ([…], time 14 day): 64.6 IU/L
- BUN ([…], time 14 day): 17.4 mg/dL
- CRE ([…], time 14 day): 0.2 mg/dL
- Ca ([…], time 14 day): 10.8 mg/dL
- Cl ([…], time 14 day): 106 meq/L
- DBIL ([…], time 14 day): 0 mg/dL
- GLC ([…], time 14 day): 201.8 mg/dL
- IP ([…], time 14 day): 6.1 mg/dL
- K ([…], time 14 day): 4.2 meq/L
- LDH ([…], time 14 day): 226.8 IU/L
- Na ([…], time 14 day): 142 meq/L
- PL ([…], time 14 day): 152 mg/dL
- RALB ([…], time 14 day): 3.2 g/dL
- TBIL ([…], time 14 day): 0.004 mg/dL
- TC ([…], time 14 day): 74.8 mg/dL
- TG ([…], time 14 day): 103 mg/dL
- TP ([…], time 14 day): 5.9 g/dL
- gamma-GTP ([…], time 14 day): 1.2 IU/L
- A/G ([…], time 28 day): 1.2
- ALP ([…], time 28 day): 1062.8 IU/L
- ALT ([…], time 28 day): 43.4 IU/L
- AST ([…], time 28 day): 65.4 IU/L
- BUN ([…], time 28 day): 16.8 mg/dL
- CRE ([…], time 28 day): 0.2 mg/dL
- Ca ([…], time 28 day): 10.6 mg/dL
- Cl ([…], time 28 day): 106 meq/L
- DBIL ([…], time 28 day): 0 mg/dL
- GLC ([…], time 28 day): 194 mg/dL
- IP ([…], time 28 day): 6.3 mg/dL
- K ([…], time 28 day): 4 meq/L
- LDH ([…], time 28 day): 145.6 IU/L
- Na ([…], time 28 day): 141.2 meq/L
- PL ([…], time 28 day): 147 mg/dL
- RALB ([…], time 28 day): 3.3 g/dL
- TBIL ([…], time 28 day): 0.026 mg/dL
- TC ([…], time 28 day): 78 mg/dL
- TG ([…], time 28 day): 100.8 mg/dL
- TP ([…], time 28 day): 6.1 g/dL
- gamma-GTP ([…], time 28 day): 1.2 IU/L
